This note sets out measurements from patent EP4796538A1, “NOVEL QUINOXALINE COMPOUNDS, MANUFACTURING METHOD THEREOF, AND USES THEREOF” (Gachon University of Industry-Academic Cooperation …, priority 2023, dated 2025).

For experiment [1], the target named is T1, RET-CCDC6 (PTC1) (Homo sapiens, UniProt P07949).
T1 construct: purchased Reaction Biology Corp
Nature of the experiment: Kinase panel inhibition, radiolabeled [γ-33P] ATP (Reaction Biology Corp). The experiment is classed as biochemical. The settings on record: for remaining activity at 1 µM: compound at 1 uM, ATP 10 µM, read-out: % Enzyme Activity (relative to DMSO controls) RET-CCDC6 (PTC1); for remaining activity at 10 µM: compound at 10 uM, ATP 1 µM.
Procedure: (§1) Using radiolabeled ATP ([γ-33P] ATP), the degree to which the substrate was replaced by a 33P-phosphorylated substrate was measured, and changes in kinase activity were determined from the measurement of the radiolabeled phosphorylated substrate.

In experiment [2] the target is T2, RET-NCOA4 (PTC3) (Homo sapiens, UniProt P07949).
T2 construct: purchased Reaction Biology Corp
Described as above. The settings on record: compound at 1 uM; ATP 10 µM; read-out: % Enzyme Activity (relative to DMSO controls) RET-NCOA4 (PTC3). In kind it is biochemical.
Procedure: as §1

Experiment [3] deals with T3, RET (G810S/M918T) (Homo sapiens, UniProt P07949, G810S/M918T).
T3 construct: purchased Reaction Biology Corp
The experiment is described as above. The experiment is classed as biochemical. The conditions noted are these: compound at 10 uM, ATP 1 µM.
Procedure: as §1

In experiment [4] the test system is BaF3 KIF5B-RET (V804M). Put plainly: Cell proliferation inhibition, Cell Counting Kit-8, Ba/F3 cell line. In kind it is cell-based, rodent. The conditions noted are these: Mus musculus, 72 hours incubation, read-out: Cell Viability of BaF3 Cell lines (IC50 in uM) KIF5B-RET (V804M). On the procedure: To evaluate the inhibitory activity of the compounds represented by Formula I or Formula IV according to the present invention against RET mutation-driven cell growth in the Ba/F3 cell line and against cell growth in the non-small cell lung cancer cell line A-549, the following experiment was performed.
Each cell line was seeded in a 96-well plate at 1×10^4 cells/90 µL/well, and 10 µL/well of culture medium containing each example and intermediate compound or DMSO control at 9 concentrations (1 nM to 100 µM) prepared by 3-fold serial dilutions was added to achieve a final concentration of 0 to 100 µM, followed by incubation for 72 hours in a 37°C, 5% CO2 incubator. After 72 hours of incubation, the compound-treated plates were removed, and Cell Counting Kit-8 solution was added at 10 µL/well and mixed well. The plates were then incubated for 2 hours in a CO2 incubator at 37°C, and the absorbance was measured at 450 nm using a microplate reader.
The absorbance of the experimental group relative to that of the DMSO control group was converted to % survival, and the IC50 values representing the concentration required to inhibit cell growth by 50% were calculated. As a control compound, selpercatinib, a known RET inhibitor, was treated to calculate the IC50 values.
Background: Tetrazolium assays rely on reduction of a dye to a coloured formazan, in cell work by metabolically active cells.

Setting [5] is: Data 1, read-out: % Enzyme Activity (relative to DMSO controls) RET-CCDC6 (PTC1) Data 1.
Where [6] appears, read: Data 2, read-out: % Enzyme Activity (relative to DMSO controls) RET-CCDC6 (PTC1) Data 2.
Where [7] appears, read: Data 1, read-out: % Enzyme Activity (relative to DMSO controls) RET (G810S/M918T) Data 1.
The mark [8] stands for this setting: Data 2, read-out: % Enzyme Activity (relative to DMSO controls) RET (G810S/M918T) Data 2.

Where two headings read alike, the source gives them in different places.

T3 sequence (P07949 29-1114 G810S/M918T): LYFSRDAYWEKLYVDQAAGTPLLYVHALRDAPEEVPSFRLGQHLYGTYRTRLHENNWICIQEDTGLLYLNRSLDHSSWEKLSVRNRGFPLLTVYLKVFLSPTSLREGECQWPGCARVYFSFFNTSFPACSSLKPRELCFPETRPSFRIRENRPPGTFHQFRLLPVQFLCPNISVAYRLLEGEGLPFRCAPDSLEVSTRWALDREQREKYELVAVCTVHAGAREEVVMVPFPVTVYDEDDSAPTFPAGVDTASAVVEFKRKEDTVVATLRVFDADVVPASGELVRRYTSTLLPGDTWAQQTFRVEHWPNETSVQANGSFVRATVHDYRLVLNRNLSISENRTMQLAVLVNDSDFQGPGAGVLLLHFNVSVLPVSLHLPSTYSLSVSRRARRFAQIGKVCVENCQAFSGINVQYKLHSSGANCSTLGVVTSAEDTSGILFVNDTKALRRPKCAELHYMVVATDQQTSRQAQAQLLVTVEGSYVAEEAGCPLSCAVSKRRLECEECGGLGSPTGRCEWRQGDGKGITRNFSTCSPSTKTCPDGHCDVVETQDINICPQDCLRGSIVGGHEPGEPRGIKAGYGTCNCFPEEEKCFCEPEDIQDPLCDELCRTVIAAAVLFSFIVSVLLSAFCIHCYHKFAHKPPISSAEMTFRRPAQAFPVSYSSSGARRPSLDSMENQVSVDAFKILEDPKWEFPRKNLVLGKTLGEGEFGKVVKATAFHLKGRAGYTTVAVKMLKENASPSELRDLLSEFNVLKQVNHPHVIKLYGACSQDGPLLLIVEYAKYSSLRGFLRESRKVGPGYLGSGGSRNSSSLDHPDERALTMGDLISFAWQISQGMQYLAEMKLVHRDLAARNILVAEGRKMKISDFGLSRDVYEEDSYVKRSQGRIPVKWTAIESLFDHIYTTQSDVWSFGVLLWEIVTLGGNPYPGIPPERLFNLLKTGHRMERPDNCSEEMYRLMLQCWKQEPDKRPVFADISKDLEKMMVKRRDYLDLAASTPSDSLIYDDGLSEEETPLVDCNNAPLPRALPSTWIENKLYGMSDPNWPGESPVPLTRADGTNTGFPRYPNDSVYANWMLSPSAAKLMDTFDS
T1 sequence (P07949 whole entry, looked up): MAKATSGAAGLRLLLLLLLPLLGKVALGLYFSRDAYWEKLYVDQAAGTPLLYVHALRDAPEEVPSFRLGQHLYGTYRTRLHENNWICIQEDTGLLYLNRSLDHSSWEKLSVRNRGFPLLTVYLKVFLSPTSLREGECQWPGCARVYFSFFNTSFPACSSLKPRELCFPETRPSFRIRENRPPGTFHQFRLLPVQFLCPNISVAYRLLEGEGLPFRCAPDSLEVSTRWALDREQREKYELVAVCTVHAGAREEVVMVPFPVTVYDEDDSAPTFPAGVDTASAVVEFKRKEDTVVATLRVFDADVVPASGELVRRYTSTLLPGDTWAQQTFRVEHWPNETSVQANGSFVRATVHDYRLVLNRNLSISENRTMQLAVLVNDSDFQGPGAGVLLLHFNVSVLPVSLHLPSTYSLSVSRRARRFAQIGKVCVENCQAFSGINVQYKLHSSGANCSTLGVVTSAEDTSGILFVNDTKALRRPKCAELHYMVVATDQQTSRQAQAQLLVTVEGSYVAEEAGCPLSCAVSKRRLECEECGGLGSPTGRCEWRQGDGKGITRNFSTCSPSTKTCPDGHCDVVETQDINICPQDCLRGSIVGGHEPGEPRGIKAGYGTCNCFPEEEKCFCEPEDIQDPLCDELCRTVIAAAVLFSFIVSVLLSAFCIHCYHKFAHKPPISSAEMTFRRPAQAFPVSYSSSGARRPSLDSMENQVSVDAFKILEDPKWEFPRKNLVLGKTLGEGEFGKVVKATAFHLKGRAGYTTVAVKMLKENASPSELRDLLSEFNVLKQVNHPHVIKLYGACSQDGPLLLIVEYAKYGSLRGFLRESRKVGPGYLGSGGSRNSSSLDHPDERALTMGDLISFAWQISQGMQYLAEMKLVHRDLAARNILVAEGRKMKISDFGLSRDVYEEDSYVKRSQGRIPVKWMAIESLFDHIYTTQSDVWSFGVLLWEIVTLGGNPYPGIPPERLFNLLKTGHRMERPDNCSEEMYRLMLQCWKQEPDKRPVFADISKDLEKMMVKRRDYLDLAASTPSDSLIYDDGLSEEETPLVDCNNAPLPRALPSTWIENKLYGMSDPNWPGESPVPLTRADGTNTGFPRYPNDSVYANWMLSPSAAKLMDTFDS
T2 sequence (P07949 whole entry, looked up): as above

In general, IC50 refers to the concentration that gives 50% inhibition. On to `Nc1cc(-c2ccc(N3CC(Oc4cccc(F)c4)C3)nc2)c2nccnc2c1` [Example 1, 8-(6-(3-(3-fluorophenoxy)azetidin-1-yl)pyridin-3-yl)quinoxalin-6-amine], for which the remaining activity at 1 µM in experiment [1] was determined as 0.01%; in experiment [2] it was 1.11%. Moreover, the remaining activity at 10 µM is 0.75% in experiment [1] (setting [5]), 0.52% in experiment [1] (setting [6]), 0.22% in experiment [3] (setting [7]) and -0.72% in experiment [3] (setting [8]). In experiment [4], the IC50 was 1.02 µM.
Turning to `CCNc1cc(-c2ccc(N3CC(Oc4cccc(F)c4)C3)nc2)c2nccnc2c1` [Example 3, N-ethyl-8-(6-(3-(3-fluorophenoxy)azetidin-1-yl)pyridin-3-yl)quinoxalin-6-amine], the remaining activity at 1 µM turned out to be 18.6% in experiment [1] and 16.8% in experiment [2]. The remaining activity at 10 µM in experiment [1] (setting [5]) is 0.73%; in experiment [1] (setting [6]), 0.91%; in experiment [3] (setting [7]), -0.47%; in experiment [3] (setting [8]) it was -0.51%. Moreover, in experiment [4], the IC50 was 0.12 µM.
